The assay addresses T1, human oxytocin receptor (Homo sapiens, UniProt P30559).
T1 construct: host or cells: CHO cells (pcDNA3.1 vector)
T1 sequence (P30559 1-389): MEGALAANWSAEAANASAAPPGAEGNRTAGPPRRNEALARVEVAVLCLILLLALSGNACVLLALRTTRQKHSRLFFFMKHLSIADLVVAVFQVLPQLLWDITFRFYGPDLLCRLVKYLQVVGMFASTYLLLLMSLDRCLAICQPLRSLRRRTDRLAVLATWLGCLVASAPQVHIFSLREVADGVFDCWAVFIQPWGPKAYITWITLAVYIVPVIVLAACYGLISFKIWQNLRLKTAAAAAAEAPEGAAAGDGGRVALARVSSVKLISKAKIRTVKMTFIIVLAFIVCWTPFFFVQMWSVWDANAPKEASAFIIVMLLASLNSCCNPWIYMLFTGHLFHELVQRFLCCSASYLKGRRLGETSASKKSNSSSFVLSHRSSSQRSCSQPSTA
Nature of the assay: Oxytocin binding in Chinese Hamster Ovary cell membranes expressing human oxytocin receptors. The settings on record: 100 nM, CHO cell membranes, [3H]oxytocin, values without parentheses, read-out: OT % inhibition @ 100% nM.
As for `COc1cccc(-c2cc(OC)c(C(=O)N3Cc4ccc(C(=O)N[C@@H](Cc5c[nH]cn5)C(N)=O)n4Cc4ccccc43)cc2Cl)c1` [Example 287, N-[(1S)-2-Amino-1-(1H-imidazol-4-ylmethyl)-2-oxoethyl]-10-[(6-chloro-3,3′-dimethoxy[1,1′-biphenyl]-4-yl)carbonyl]-10,11-dihydro-5H-pyrrolo[2,1-c][1,4]benzodiazepine-3-carboxamide], the inhibition at 0.1 µM was determined as 88%.

As for `COc1cc(C(=O)N2Cc3ccc(C(=O)NCCCN(C)C)n3Cc3ccccc32)ccc1-n1c(C)ccc1C` [Example 308, N-[3-(Dimethylamino)propyl]-10-[4-(2,5-dimethyl-1H-pyrrol-1-yl)-3-methoxybenzoyl]-10,11-dihydro-5H-pyrrolo[2,1-c][1,4]benzodiazepine-3-carboxamide], the inhibition at 0.1 µM turned out to be 7%. With `COc1cccc(-c2ccc(C(=O)N3Cc4ccc(C(=O)NCCCN(C)C)n4Cc4ccccc43)cc2C)c1` [Example 74, N-[3-(Dimethylamino)propyl]-10-[(3′-methoxy-2-methyl[1,1′-biphenyl]-4-yl)carbonyl]-10,11-dihydro-5H-pyrrolo[2,1-c][1,4]benzodiazepine-3-carboxamide], the inhibition at 0.1 µM is 45%. On to `COc1ccccc1-c1ccc(C(=O)N2Cc3ccc(C(=O)N[C@@H](CCCCNC(=O)OC(C)(C)C)C(N)=O)n3Cc3ccccc32)cc1OC` [Example 303, tert-Butyl (5S)-6-amino-5-[({10-[(2,2′-dimethoxy[1,1′-biphenyl]-4-yl)carbonyl]-10,11-dihydro-5H-pyrrolo[2,1-c][1,4]benzodiazepin-3-yl}carbonyl)amino]-6-oxohexylcarbamate], for which the inhibition at 0.1 µM was 66%. `Cc1ccccc1-c1ccc(C(=O)N2Cc3ccc(C(=O)N4CCCN(C)CC4)n3Cc3ccccc32)cc1C` [Example 63, {10-[(2,2′-Dimethyl[1,1′-biphenyl]-4-yl)carbonyl]-10,11-dihydro-5H-pyrrolo[2,1-c][1,4]benzodiazepin-3-yl}(4-methyl-1,4-diazepan-1-yl)methanone]: the inhibition at 0.1 µM is 98%. Consider `COc1cc(C(=O)N2Cc3ccc(C(=O)N4CCC(N5CCCCC5)CC4)n3Cc3ccccc32)ccc1-n1c(C)ccc1C` [Example 311, {10-[4-(2,5-Dimethyl-1H-pyrrol-1-yl)-3-methoxy-benzoyl]-10,11-dihydro-5H-pyrrolo[2,1-c][1,4]benzodiazepin-3-yl}[4-(1-piperidinyl)-1-piperidinyl]-methanone], for which the inhibition at 0.1 µM came to 16%.

`COc1cc(C(=O)N2Cc3ccc(C(=O)N4CCN(CCCN(C)C)CC4)n3Cc3ccccc32)ccc1-c1ccccc1C` [Example 250, {4-[3-(Dimethylamino)propyl]-1-piperazinyl}{10-[(2-methoxy-2′-methyl[1,1′-biphenyl]-4-yl)carbonyl]-10,11-dihydro-5H-pyrrolo[2,1-c][1,4]benzodiazepin-3-yl}methanone]: the inhibition at 0.1 µM was found to be 87%. `COc1cc(C(=O)N2Cc3ccc(C(=O)N4CCN(C(C)C)CC4)n3Cc3ccccc32)ccc1-n1c(C)ccc1C` [Example 319, {10-[4-(2,5-Dimethyl-1H-pyrrol-1-yl)-3-methoxybenzoyl]-10,11-dihydro-5H-pyrrolo[2,1-c][1,4]benzodiazepin-3-yl}(4-isopropyl-1-piperazinyl)methanone]: the inhibition at 0.1 µM came out at 22%.

For the molecule `CN1CCN(C(=O)c2ccc3n2Cc2ccccc2N(C(=O)c2ccc(-c4cccc5ccccc45)cc2Cl)C3)CC1` [Example 58, {10-[2-Chloro-4-(1-naphthyl)benzoyl]-10,11-dihydro-5H-pyrrolo[2,1-c][1,4]benzodiazepin-3-yl}(4-methyl-1-piperazinyl)methanone], the inhibition at 0.1 µM amounted to 24%. With `COc1cc(C(=O)N2Cc3ccc(C(=O)N4CCN(CCN(C)C)CC4)n3Cc3ccccc32)ccc1-n1c(C)ccc1C` [Example 316, {4-[2-(Dimethylamino)ethyl]-1-piperazinyl}{10-[4-(2,5-dimethyl-1H-pyrrol-1-yl)-3-methoxybenzoyl]-10,11-dihydro-5H-pyrrolo[2,1-c][1,4]benzodiazepin-3-yl}methanone], the inhibition at 0.1 µM was found to be 24%.

With `COc1cc(C(=O)N2Cc3ccc(C(=O)N4CCN(CCN5CCOCC5)CC4)n3Cc3ccccc32)ccc1-n1c(C)ccc1C` [Example 317, {10-[4-(2,5-Dimethyl-1H-pyrrol-1-yl)-3-methoxybenzoyl]-10,11-dihydro-5H-pyrrolo[2,1-c][1,4]benzodiazepin-3-yl}{4-[2-(4-morpholinyl)ethyl]-1-piperazinyl}methanone], the inhibition at 0.1 µM amounted to 32%. Take `COc1ccccc1-c1ccc(C(=O)N2Cc3ccc(C(=O)NCCCN(C)C)n3Cc3ccccc32)cc1` [Example 75, N-[3-(Dimethylamino)propyl]-10-[(2′-methoxy[1,1′-biphenyl]-4-yl)carbonyl]-10,11-dihydro-5H-pyrrolo[2,1-c][1,4]benzodiazepine-3-carboxamide]: the inhibition at 0.1 µM amounted to 66%. Regarding `COc1cccc(-c2cc(OC)c(C(=O)N3Cc4ccc(C(=O)N5CCN(CCCN(C)C)CC5)n4Cc4ccccc43)cc2Cl)c1` [Example 252, {10-[(6-Chloro-3,3′-dimethoxy[1,1′-biphenyl]-4-yl)carbonyl]-10,11-dihydro-5H-pyrrolo[2,1-c][1,4]benzodiazepin-3-yl}{4-[3-(dimethylamino)propyl]-1-piperazinyl}methanone], the inhibition at 0.1 µM was 72%.

As for `COc1cc(-c2ccccc2C)c(Cl)cc1C(=O)N1Cc2ccc(C(=O)N3CCN(CCCN(C)C)CC3)n2Cc2ccccc21` [Example 251, {10-[(6-Chloro-3-methoxy-2′-methyl[1,1′-biphenyl]-4-yl)carbonyl]-10,11-dihydro-5H-pyrrolo[2,1-c][1,4]benzodiazepin-3-yl}{4-[3-(dimethylamino)propyl]-1-piperazinyl}methanone], the inhibition at 0.1 µM is 87%. Under `COc1ccccc1-c1ccc(C(=O)N2Cc3ccc(C(=O)N[C@H]4CN5CCC4CC5)n3Cc3ccccc32)cc1` [Example 296, N-[(3R)-1-Azabicyclo[2.2.2]oct-3-yl]-10-[(2′-methoxy[1,1′-biphenyl]-4-yl)carbonyl]-10,11-dihydro-5H-pyrrolo[2,1-c][1,4]benzodiazepine-3-carboxamide] stands 88%; under `COc1cccc(-c2ccc(C(=O)N3Cc4ccc(C(=O)N5CCCN(C)CC5)n4Cc4ccccc43)cc2C)c1` [Example 64, {10-[(3′-Methoxy-2-methyl[1,1′-biphenyl]-4-yl)carbonyl]-10,11-dihydro-5H-pyrrolo[2,1-c][1,4]benzodiazepin-3-yl}(4-methyl-1,4-diazepan-1-yl)methanone], 74%.

Take `COc1cc(C(=O)N2Cc3ccc(C(=O)N4CCN(C)CC4)n3Cc3ccccc32)ccc1-n1c(C)ccc1C` [Example 306, {10-[4-(2,5-Dimethyl-1H-pyrrol-1-yl)-3-methoxybenzoyl]-10,11-dihydro-5H-pyrrolo[2,1-c][1,4]benzodiazepin-3-yl}(4-methyl-1-piperazinyl)methanone]: the inhibition at 0.1 µM stood at 34%.

Turning to `COc1cccc(-c2ccc(C(=O)N3Cc4ccc(C(=O)N5CCCN(C)CC5)n4Cc4ccccc43)cc2OC)c1` [Example 70, {10-[(2,3′-Dimethoxy[1,1′-biphenyl]-4-yl)carbonyl]-10,11-dihydro-5H-pyrrolo[2,1-c][1,4]benzodiazepin-3-yl}(4-methyl-1,4-diazepan-1-yl)methanone], the inhibition at 0.1 µM was found to be 75%. Take `CN1CCCN(C(=O)c2ccc3n2Cc2ccccc2N(C(=O)c2ccc(-c4cccc5ccccc45)cc2Cl)C3)CC1` [Example 71, {10-[2-Chloro-4-(1-naphthyl)benzoyl]-10,11-dihydro-5H-pyrrolo[2,1-c][1,4]benzodiazepin-3-yl}(4-methyl-1,4-diazepan-1-yl)methanone]: the inhibition at 0.1 µM was 25%. Consider `COc1cc(C(=O)N2Cc3ccc(C(=O)n4ccnc4)n3Cc3ccccc32)ccc1-c1cccc2ccccc12` [Example 291, 1H-Imidazol-1-yl-{10-[3-methoxy-4-(1-naphthyl)benzoyl]-10,11-dihydro-5H-pyrrolo[2,1-c][1,4]benzodiazepin-3-yl}methanone], for which the inhibition at 0.1 µM was found to be 32%. Turning to `COc1cccc(-c2ccc(C(=O)N3Cc4ccc(C(=O)n5ccnc5)n4Cc4ccccc43)cc2C)c1` [Example 289, 1H-Imidazol-1-yl-{10-[(3′-methoxy-2-methyl[1,1′-biphenyl]-4-yl)carbonyl]-10,11-dihydro-5H-pyrrolo[2,1-c][1,4]benzodiazepin-3-yl}methanone], the inhibition at 0.1 µM amounted to 45%. For the molecule `COc1cc(C(=O)N2Cc3ccc(C(=O)N4CCN(C)CC4)n3Cc3ccccc32)ccc1-c1ccccc1C` [Example 53, {10-[(2-Methoxy-2′-methyl[1,1′-biphenyl]-4-yl)carbonyl]-10,11-dihydro-5H-pyrrolo[2,1-c][1,4]benzodiazepin-3-yl}(4-methyl-1-piperazinyl)methanone], the inhibition at 0.1 µM came to 89%. Regarding `COc1cccc(-c2ccc(C(=O)N3Cc4ccc(C(=O)N5CCN(C)CC5)n4Cc4ccccc43)cc2OC)c1` [Example 57, {10-[(2,3′-Dimethoxy[1,1′-biphenyl]-4-yl)carbonyl]-10,11-dihydro-5H-pyrrolo[2,1-c][1,4]benzodiazepin-3-yl}(4-methyl-1-piperazinyl)methanone], the inhibition at 0.1 µM was determined as 76%. In the case of `Cc1cc(C(=O)N2Cc3ccc(C(=O)N4CCN(CCCN(C)C)CC4)n3Cc3ccccc32)ccc1-c1ccccc1C(F)(F)F` [Example 257, {10-[(2-Methyl-2′-trifluoromethyl-[1,1′-biphenyl]-4-yl)carbonyl]-10,11-dihydro-5H-pyrrolo[2,1-c][1,4]benzodiazepin-3-yl}{4-[3-(dimethylamino)propyl]-1-piperazinyl}-methanone], the inhibition at 0.1 µM worked out at 85%.

A word on the inhibition: it is how much of the control response was suppressed.

These data come from patent publication US7109193B2, “Tricyclic diazepines tocolytic oxytocin receptor antagonists” (Wyeth, priority 2001, dated 2006).
